From patent US8604053B2, “TRPV1 antagonists” (AbbVie Inc., priority 2008, dated 2013)

Biological target: T1, human TRPV1 (Homo sapiens, UniProt Q8NER1)
T1 construct: expressed in transfected cells; host or cells: HEK293-F cells, transient transfection
Assay: Acid activation assay, ratiometric calcium imaging
Assay type: cell-based
Details: HEK293-F cells expressing human TRPV1, Example 56 at 3 μM; for block of TRPV1-mediated increase in intracellular calcium concentration in response to pH 5.5: acid pH 5.5; for block of TRPV1-mediated increase in intracellular calcium concentration in response to capsaicin: capsaicin 1 μM
Description: The differential effects of TRPV1 antagonists on capsaicin- or acid-induced responses were verified by ratiometric calcium imaging. Transiently transfected HEK293-F cells expressing human TRPV1 were incubated with 5 μM Fura-2AM for 30 minutes at 37° C. Intracellular calcium concentration was measured on an imaging system consisting of the X-Cite™ 120 Fluorescence Illumination System (EXFO) and a Digital Camera (C4742-95, Hamamatsu Photonics) connected to an Olympus 1×71 microscope. Through the control of Slide Book 4.2 software, fluorescence was measured during excitation at 340 and 380 nm; the ratio of the fluorescence at both excitation wavelengths (F340/F380) was monitored. D-PBS, pH 7.4 (Invitrogen, catalog no. 14287) was used as the extracellular solution. Acidic buffer was prepared by titrating D-PBS, pH 7.4 with 7 N HCl to pH 5.5. Agonists and antagonists were prepared in the pH 7.4 or 5.5 solutions. Rapid solution switch was achieved by using a ValveLink system.
Over the time 1250-second course, the cells were challenged sequentially with solutions containing Example 56 (3 μM), Example 56 (3 μM) plus capsaicin (1 μM), Example 56 (3 μM) plus acid (pH 5.5), or acid (pH 5.5) alone. The black bars above the traces designate addition and duration of solution applications. Spaces between horizontal bars represent periods in which cells were perfused with D-PBS, pH 7.4 alone. […]

T1 sequence (Q8NER1 whole entry): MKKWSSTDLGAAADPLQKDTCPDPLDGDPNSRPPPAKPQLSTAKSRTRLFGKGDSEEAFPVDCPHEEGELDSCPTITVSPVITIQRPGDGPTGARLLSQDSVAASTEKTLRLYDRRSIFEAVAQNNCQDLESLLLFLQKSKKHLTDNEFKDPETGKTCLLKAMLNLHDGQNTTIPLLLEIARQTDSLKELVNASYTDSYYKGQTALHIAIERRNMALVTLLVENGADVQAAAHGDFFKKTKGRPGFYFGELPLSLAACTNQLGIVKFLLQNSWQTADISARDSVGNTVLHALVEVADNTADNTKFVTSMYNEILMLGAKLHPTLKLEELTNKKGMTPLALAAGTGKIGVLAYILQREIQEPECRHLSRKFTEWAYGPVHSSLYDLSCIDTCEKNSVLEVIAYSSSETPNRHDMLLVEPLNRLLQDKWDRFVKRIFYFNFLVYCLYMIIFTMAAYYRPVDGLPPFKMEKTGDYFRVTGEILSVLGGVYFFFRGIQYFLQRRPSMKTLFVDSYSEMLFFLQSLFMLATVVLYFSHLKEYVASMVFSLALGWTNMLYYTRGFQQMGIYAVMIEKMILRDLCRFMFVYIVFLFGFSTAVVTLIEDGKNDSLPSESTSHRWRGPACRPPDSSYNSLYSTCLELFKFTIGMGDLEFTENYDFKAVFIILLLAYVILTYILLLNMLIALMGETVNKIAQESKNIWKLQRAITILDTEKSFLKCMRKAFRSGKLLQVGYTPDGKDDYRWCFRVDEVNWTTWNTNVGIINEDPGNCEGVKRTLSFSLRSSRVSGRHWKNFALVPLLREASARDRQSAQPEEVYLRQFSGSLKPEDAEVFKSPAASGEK

Substance | block of TRPV1-mediated increase in intracellular calcium concentration in response to pH 5.5 | block of TRPV1-mediated increase in intracellular calcium concentration in response to capsaicin
N-[(4R)-2,2-diethyl-6-fluoro-3,4-dihydro-2H-chromen-4-yl]-N-(3-methylisoquinolin-5-yl)urea [Example 56] | did not completely block | completely blocked
N-[(4R)-2,2-diethyl-8-fluoro-3,4-dihydro-2H-chromen-4-yl]-N-(3-methylisoquinolin-5-yl)urea [Example 62] | did not completely block | completely blocked
